Laboratory results taken from patent US10647675B2 (priority 2015, dated 2020).
Values after ≈ are worked out from the molar mass of the structure shown.

How the values were obtained:
[1] = tested on: Trichophyton mentagrophytes SM-110; assay: Antifungal activity evaluation test: minimum inhibitory concentration (MIC), broth dilution by reference to CLSI M38-A2; type: cell-based; details: SM110, read-out: MIC (T. menta.)
Method in brief: (§1)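 MIC read visually as lowest concentration inhibiting growth by at least 80% relative to control after 4 days at 35° C. Trichophyton strains inoculated at 2×10^3 cells/mL final in MOPS-buffered RPMI 1640 (pH 7.0); compounds as 2-fold DMSO series, CLSI M38-A2 basis.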

[2] = tested on: Trichophyton rubrum KD-1130; assay: as above; type: cell-based; details: KD1130, read-out: MIC (T. rubrum)
Method in brief: as §1

Row | MIC [1] [µg/mL] | MIC [2] [µg/mL] | Compound
1 | 0.2 to 0.78 (≈ 0.583 to 2.27 µM) | 0.2 to 0.78 (≈ 0.583 to 2.27 µM) | COc1cccc(-c2cccnc2Oc2ccc(C(C)(F)F)nc2)n1 [I-95, 2′-{[6-(1,1-difluoroethyl)pyridin-3-yl]oxy}-6-methoxy-2,3′-bipyridine]
2 | ≤ 0.1 | ≤ 0.1 | Cc1cnc(-c2ccc(Oc3ncccc3-c3cnccc3C)cc2)s1 [I-428]
3 | ≤ 0.1 | ≤ 0.1 | COc1ccncc1-c1cccnc1Oc1ccc(C(F)F)c(C)c1 [I-295, 2-[4-(difluoromethyl)-3-methylphenoxy]-4′-methoxy-3,3′-bipyridine]
4 | 0.2 to 0.78 (≈ 0.46 to 1.79 µM) | ≤ 0.1 | FC(F)(F)c1ccc(Oc2ncccc2-c2cccc3c(Br)cnn23)cn1 [I-52, 3-bromo-7-(2-{[6-(trifluoromethyl)pyridin-3-yl]oxy}pyridin-3-yl)-pyrazolo[1,5-a]pyridine]
5 | ≤ 0.1 | ≤ 0.1 | Cc1cc(Oc2ncccc2-c2cccc3ccnn23)cnc1C(F)(F)F [I-461]
6 | ≤ 0.1 | ≤ 0.1 | COc1ccccc1-c1nccnc1Oc1ccc2c(c1)CCCC2 [I-315]
7 | ≤ 0.1 | ≤ 0.1 | COc1cccc(-c2cccnc2Oc2ccc(C(F)(F)F)cc2)n1 [I-213, 6-methoxy-2′-[4-(trifluoromethyl)phenoxy]-2,3′-bipyridine]
8 | ≤ 0.1 | ≤ 0.1 | COc1ccc(Cl)cc1-c1cccnc1Oc1ccc(C(F)(F)F)nc1 [I-23, 3-(5-chloro-2-methoxyphenyl)-2-{[6-(trifluoromethyl)pyridin-3-yl]oxy}pyridine]
9 | 0.2 to 0.78 (≈ 0.571 to 2.23 µM) | 0.2 to 0.78 (≈ 0.571 to 2.23 µM) | CCOCCc1ccc(Oc2ncccc2-c2cnccc2OC)cc1 [I-274, 2-[4-(2-ethoxyethyl)phenoxy]-4′-methoxy-3,3′-bipyridine]
10 | ≤ 0.1 | ≤ 0.1 | COc1ncccc1-c1cccnc1Oc1ccc(C(C)(F)F)nc1 [I-88, 2-{[6-(1,1-difluoroethyl)pyridin-3-yl]oxy}-2′-methoxy-3,3′-bipyridine]
11 | 1.56 to 6.25 (≈ 4.35 to 17.4 µM) | 1.56 to 6.25 (≈ 4.35 to 17.4 µM) | CC(=O)c1ccccc1-c1cccnc1Oc1ccc(C(F)(F)F)nc1 [I-19, 1-[2-(2-{[6-(trifluoromethyl)pyridin-3-yl]oxy}pyridin-3-yl)phenyl]ethanone]
12 | 1.56 to 6.25 (≈ 4.38 to 17.5 µM) | 1.56 to 6.25 (≈ 4.38 to 17.5 µM) | FC(F)(F)c1ccc(Oc2ncccc2-c2cnn3ccccc23)cn1 [I-49, 3-(2-{[6-(trifluoromethyl)pyridin-3-yl]oxy}pyridin-3-yl)-pyrazolo[1,5-a]pryidine]
13 | ≤ 0.1 | ≤ 0.1 | CCc1ccc(Oc2ncccc2-c2cncc(F)c2OC)cc1 [I-283, 2-(4-ethylphenoxy)-5′-fluoro-4′-methoxy-3,3′-bipyridine]
14 | ≤ 0.1 | ≤ 0.1 | COc1ccccc1-c1cccnc1Oc1ccc(CNc2ccccc2)nc1 [I-371, N-[(5-{[3-(2-methoxyphenyl)pyridin-2-yl]oxy}pyridin-2-yl)methyl]aniline]
15 | ≤ 0.1 | ≤ 0.1 | CCc1ccc(Oc2ncccc2-c2cnccc2OC)cc1C [I-263, 2-(4-ethyl-3-methylphenoxy)-4′-methoxy-3,3′-bipyridine]
16 | 1.56 to 6.25 (≈ 4.48 to 17.9 µM) | 1.56 to 6.25 (≈ 4.48 to 17.9 µM) | Cc1nn(C)c(C)c1-c1cccnc1Oc1ccc(C(F)(F)F)nc1 [I-346, 2-{[6-(trifluoromethyl)pyridin-3-yl]oxy}-3-(1,3,5-trimethyl-1H-pyrazol-4-yl)pyridine]
17 | 0.2 to 0.78 (≈ 0.55 to 2.15 µM) | 0.2 to 0.78 (≈ 0.55 to 2.15 µM) | CC(F)(F)c1ccc(Oc2ncccc2-c2nccc3ccccc23)cn1 [I-112, 1-(2-{[6-(1,1-difluoroethyl)pyridin-3-yl]oxy}-3-yl)isoquinoline]
18 | ≤ 0.1 | ≤ 0.1 | COc1ncccc1-c1cccnc1Oc1ccc(CCn2cc(C)cn2)cc1 [I-401, 2-methoxy-2′-{4-[2-(4-methyl-1H-pyrazol-1-yl)ethyl]phenoxy}-3,3′-bipyridine]

Row | MIC [1] [µg/mL] | MIC [2] [µg/mL] | Compound
19 | ≤ 0.1 | 0.2 to 0.78 (≈ 0.566 to 2.21 µM) | CC(F)(F)c1ccc(Oc2ncccc2-c2cccc3ocnc23)cn1 [I-113, 4-(2-{[6-(1,1-difluoroethyl)pyridin-3-yl]oxy}-3-yl)benzo[d]oxazole]
20 | ≤ 0.1 | ≤ 0.1 | COc1cccc(Cl)c1-c1cccnc1Cc1ccc(C(F)(F)F)nc1 [I-441]
21 | ≤ 0.1 | ≤ 0.1 | COc1ccccc1-c1cncnc1Oc1ccc(C(C)C)cc1 [I-320, 4-(4-isopropylphenoxy)-5-(2-methoxyphenyl)pyrimidine]
22 | ≤ 0.1 | ≤ 0.1 | COc1ncncc1-c1cccnc1Oc1ccc(C(F)F)c(C)c1 [I-457]
23 | ≤ 0.1 | ≤ 0.1 | COCC(F)(F)c1ccc(Oc2ncccc2-c2ccc(F)cc2OC)cn1 [I-161, 2-{[6-(1,1-difluoro-2-methoxyethyl)pyridin-3-yl]oxy}-3-(4-fluoro-2-methoxyphenyl)pyridine]
24 | ≤ 0.1 | ≤ 0.1 | COc1ccccc1-c1cccnc1Oc1ccc(C(F)F)cc1 [I-444]
25 | ≤ 0.1 | ≤ 0.1 | COc1ncccc1-c1cccnc1Oc1ccc2c(c1)CCCC2 [I-269, 2-methoxy-2′-[(5,6,7,8-tetrahydronaphthalen-2-yl)oxy]-3,3′-bipyridine]
26 | ≤ 0.1 | ≤ 0.1 | COc1ccncc1-c1cccnc1Oc1ccc(C(C)(F)F)cc1F [I-302]
27 | ≤ 0.1 | ≤ 0.1 | COc1ccccc1-c1cccnc1Oc1ccc(C(F)(F)F)cc1 [I-201, 3-(2-methoxyphenyl)-2-[4-(trifluoromethyl)phenoxy]pyridine]
28 | 0.2 to 0.78 (≈ 0.611 to 2.38 µM) | 0.2 to 0.78 (≈ 0.611 to 2.38 µM) | Cc1ccncc1-c1cccnc1Oc1ccc(C(C)(F)F)nc1 [I-91, 2-{[6-(1,1-difluoroethyl)pyridin-3-yl]oxy}-4′-methyl-3,3′-bipyridine]
29 | 0.2 to 0.78 (≈ 0.565 to 2.2 µM) | 0.2 to 0.78 (≈ 0.565 to 2.2 µM) | COc1ncccc1-c1cccnc1Oc1cnc(C2CC2)c(Cl)c1 [I-131, 2-[(5-chloro-6-cyclopropylpyridin-3-yl)oxy]-2′-methoxy-3,3′-bipyridine]
30 | ≤ 0.1 | ≤ 0.1 | COc1ccccc1-c1cccnc1Oc1ccc(Cl)cc1 [I-199, 2-(4-chlorophenoxy)-3-(2-methoxyphenyl)pyridine]
31 | ≤ 0.1 | ≤ 0.1 | COc1ncccc1-c1cccnc1Oc1ccc(CCOC(=O)N(C)C)cc1 [I-398, 4-{[(2′-methoxy-(3,3′-bipyridin)-2-yl]oxy}phenethyl dimethylcarbamate]
32 | 0.2 to 0.78 (≈ 0.576 to 2.25 µM) | 0.2 to 0.78 (≈ 0.576 to 2.25 µM) | COc1ccccc1-c1ccnnc1Oc1ccc(C(F)(F)F)nc1 [I-311, 4-(2-methoxyphenyl)-3-{[6-(trifluoromethyl)pyridin-3-yl]oxy}pyridazine]
33 | 0.2 to 0.78 (≈ 0.563 to 2.2 µM) | 0.2 to 0.78 (≈ 0.563 to 2.2 µM) | CC(F)(F)c1ccc(Oc2ncccc2-c2cccc(F)c2C#N)cn1 [I-87, 2-(2-{[6-(1,1-difluoroethyl)pyridin-3-yl]oxy}pyridin-3-yl)-6-fluorobenzonitrile]
34 | ≤ 0.1 | ≤ 0.1 | CC(F)(F)c1ccc(Oc2ncncc2-c2cccc3ccnn23)cc1 [I-333, 7-{4-[4-(1,1-difluoroethyl)phenoxy]pyrimidin-5-yl}pyrazolo[1,5-a]pyridine]
35 | ≤ 0.1 | 0.2 to 0.78 (≈ 0.549 to 2.14 µM) | CC(F)(F)c1ccc(Oc2ncccc2-c2cccc3nccnc23)cn1 [I-110, 5-(2-{[6-(1,1-difluoroethyl)pyridin-3-yl]oxy}pyridin-3-yl)quinoxaline]
36 | ≤ 0.1 | ≤ 0.1 | CCC(C)c1ccc(Oc2ncccc2-c2cnccc2OC)cc1 (stereo not drawn) [I-256, 2-[4-(sec-butyl)phenoxy]-4′-methoxy-3,3′-bipyridine]
